Numbered stars: 1 amine (or outer) side, 2 acyl side, 3 side chain; on linkers, the order of the positions; unused ones are H or OH. Square brackets hold non-standard residues; d marks the D form. Peptide text beside a SMILES is read from it. Phe(3R-OH) = O=C([C@@H](N[*:1])[C@H](O[*:3])c1ccccc1)[*:2]; Phe(4-Cl) = N[C@@H](Cc1ccc(Cl)cc1)C(=O)O; Pro(4S-NH2) = N[C@@H]1CN[C@H](C(=O)O)C1; Phe(3-F) = N[C@@H](Cc1cccc(F)c1)C(=O)O; Phe(4-F) = N[C@@H](Cc1ccc(F)cc1)C(=O)O; Phe(2-F) = N[C@@H](Cc1ccccc1F)C(=O)O; Phe(2-Me) = Cc1ccccc1C[C@H](N)C(=O)O; Arg(Me) = CNC(=N)NCCC[C@H](N)C(=O)O; Dap(CONH2) = NC(=O)NC[C@H](N)C(=O)O; Hyp = O=C(O)[C@@H]1C[C@@H](O)CN1; Pip = O=C(O)[C@@H]1CCCCN1; Nva = CCC[C@H](N)C(=O)O; Aib = CC(C)(N)C(=O)O; azaGly = NNC(=O)O
target: T1, hOT7T175 (Homo sapiens, UniProt Q969F8); test: Assay for intracellular Ca ion level-increasing activity using FLIPR; type: cell-based; conditions: hOT7T175/CHO cells, relative to Metastin (1-54)
T1 construct: expressed in transfected cells
T1 sequence (Q969F8 whole entry L364H): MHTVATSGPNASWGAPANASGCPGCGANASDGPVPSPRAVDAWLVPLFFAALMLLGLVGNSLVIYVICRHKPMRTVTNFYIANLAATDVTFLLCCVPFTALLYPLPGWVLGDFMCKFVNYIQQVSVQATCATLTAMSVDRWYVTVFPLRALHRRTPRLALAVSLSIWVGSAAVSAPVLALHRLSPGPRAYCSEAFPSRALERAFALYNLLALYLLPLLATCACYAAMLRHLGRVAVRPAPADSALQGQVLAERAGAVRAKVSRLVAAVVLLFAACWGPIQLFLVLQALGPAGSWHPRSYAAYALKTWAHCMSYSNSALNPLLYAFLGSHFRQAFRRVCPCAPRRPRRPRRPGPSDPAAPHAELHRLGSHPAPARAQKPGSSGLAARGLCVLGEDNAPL
How it was run: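 CHO/dhfr− cells stably transfected with hOT7T175, selected for high metastin response, loaded with Fluo3-AM for 1 h at 37 °C in HANKS/HBSS (pH 7.4) with probenecid. Peptides were diluted from 1×10^−3 M DMSO stock into HANKS/HBSS with 2.5 mM probenecid, 0.2% BSA, 0.1% CHAPS; intracellular Ca rise read by FLIPR.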

Specific Activity: intracellular Ca ion level-increasing activity [specific activity to Metastin (1-54)]	SMILES
2.7	CNC(=N)NCCC[C@H](NC(=O)[C@H](CC(C)C)NC(=O)NNC(=O)[C@H](Cc1ccc(F)cc1)NC(=O)[C@@H](NC(=O)[C@H](CC(N)=O)NC(=O)[C@H](CCC(=O)O)NC(=O)[C@@H](Cc1ccc(O)cc1)NC(C)=O)[C@@H](C)O)C(=O)N[C@@H](Cc1c[nH]c2ccccc12)C(N)=O [Compound No. 788, Ac-D-Tyr-Glu-Asn-Thr-Phe(4F)-AzaGly-Leu-Arg(Me)-Trp-NH2] (Ac-[dY]ENT[Phe(4-F)][azaGly]L[Arg(Me)]W-NH2)
1.0	CNC(=N)NCCC[C@H](NC(=O)[C@H](CC(C)C)NC(=O)NNC(=O)[C@@H](NC(=O)[C@@H](NC(=O)[C@H](CC(N)=O)NC(=O)[C@@H]1C[C@@H](O)CN1C(=O)[C@@H](Cc1ccc(O)cc1)NC(C)=O)[C@@H](C)O)[C@H](O)c1ccccc1)C(=O)N[C@@H](Cc1c[nH]c2ccccc12)C(N)=O [Compound No. 877, Ac-D-Tyr-Hyp-Asn-Thr-threo-Ser(3Phenyl)-AzaGly-Leu-Arg(Me)-Trp-NH2] (Ac-[dY][Hyp]NT[Phe(3R-OH)][azaGly]L[Arg(Me)]W-NH2)
0.4	CNC(=N)NCCC[C@H](NC(=O)[C@H](CC(C)C)NC(=O)NNC(=O)[C@H](Cc1ccc(Cl)cc1)NC(=O)[C@@H](NC(=O)[C@H](CC(N)=O)NC(=O)[C@@H](Cc1c[nH]c2ccccc12)NC(=O)[C@@H](Cc1ccc(O)cc1)NC(C)=O)[C@@H](C)O)C(=O)N[C@@H](Cc1c[nH]c2ccccc12)C(N)=O [Compound No. 748, Ac-D-Tyr-D-Trp-Asn-Thr-Phe(4Cl)-AzaGly-Leu-Arg(Me)-Trp-NH2] (Ac-[dY][dW]NT[Phe(4-Cl)][azaGly]L[Arg(Me)]W-NH2)
2.3	CNC(=N)NCCC[C@H](NC(=O)[C@H](CC(C)C)NC(=O)NNC(=O)[C@H](Cc1ccccc1)NC(=O)[C@@H](NC(=O)[C@H](CC(N)=O)NC(=O)[C@@H]1NCCN1C(=O)[C@@H](Cc1ccc(O)cc1)NC(C)=O)[C@@H](C)O)C(=O)N[C@@H](Cc1c[nH]c2ccccc12)C(N)=O [Compound No. 734, Ac-D-Tyr-Izc-Asn-Thr-Phe-AzaGly-Leu-Arg(Me)-Trp-NH2]
1.0	CNC(=N)NCCC[C@H](NC(=O)[C@H](CC(C)C)NC(=O)NNC(=O)[C@H](Cc1cccc(F)c1)NC(=O)[C@@H](NC(=O)[C@H](CC(N)=O)NC(=O)[C@@H](Cc1c[nH]c2ccccc12)NC(=O)[C@@H](Cc1ccc(O)cc1)NC(C)=O)[C@@H](C)O)C(=O)N[C@@H](Cc1c[nH]c2ccccc12)C(N)=O [Compound No. 750, Ac-D-Tyr-D-Trp-Asn-Thr-Phe(3F)-AzaGly-Leu-Arg(Me)-Trp-NH2] (Ac-[dY][dW]NT[Phe(3-F)][azaGly]L[Arg(Me)]W-NH2)
3.4	CNC(=N)NCCC[C@H](NC(=O)[C@H](CC(C)C)NC(=O)NNC(=O)[C@H](Cc1ccccc1)NC(=O)[C@@H](NC(=O)[C@H](CC(N)=O)NC(=O)[C@@H](CC(=O)O)NC(=O)[C@@H](Cc1ccc(O)cc1)NC(C)=O)[C@@H](C)O)C(=O)N[C@@H](Cc1c[nH]c2ccccc12)C(N)=O [Compound No. 735, Ac-D-Tyr-D-Asp-Asn-Thr-Phe-AzaGly-Leu-Arg(Me)-Trp-NH2] (Ac-[dY][dD]NTF[azaGly]L[Arg(Me)]W-NH2)
2.4	CNC(=N)NCCC[C@H](NC(=O)[C@H](CC(C)C)NC(=O)NNC(=O)[C@H](Cc1cccc(F)c1)NC(=O)[C@@H](NC(=O)[C@H](CC(N)=O)NC(=O)[C@H](CCCCN)NC(=O)[C@@H](Cc1ccc(O)cc1)NC(C)=O)[C@@H](C)O)C(=O)N[C@@H](Cc1c[nH]c2ccccc12)C(N)=O [Compound No. 756, Ac-D-Tyr-Lys-Asn-Thr-Phe(3F)-AzaGly-Leu-Arg(Me)-Trp-NH2] (Ac-[dY]KNT[Phe(3-F)][azaGly]L[Arg(Me)]W-NH2)
1.2	CCC[C@H](NC(=O)[C@@H]1C[C@@H](O)CN1C(=O)[C@@H](Cc1ccc(O)cc1)NC(C)=O)C(=O)N[C@H](C(=O)N[C@@H](Cc1ccccc1)C(=O)NNC(=O)N[C@@H](CC(C)C)C(=O)N[C@@H](CCCNC(=N)NC)C(=O)N[C@@H](Cc1c[nH]c2ccccc12)C(N)=O)[C@@H](C)O [Compound No. 886, Ac-D-Tyr-Hyp-Nva-Thr-Phe-AzaGly-Leu-Arg(Me)-Trp-NH2] (Ac-[dY][Hyp][Nva]TF[azaGly]L[Arg(Me)]W-NH2)
0.8	CNC(=N)NCCC[C@H](NC(=O)[C@H](CC(C)C)NC(=O)NNC(=O)[C@H](Cc1ccccc1)NC(=O)[C@@H](NC(=O)[C@H](CNC(N)=O)NC(=O)[C@@H]1C[C@@H](O)CN1C(=O)[C@@H](Cc1ccc(O)cc1)NC(C)=O)[C@@H](C)O)C(=O)N[C@@H](Cc1c[nH]c2ccccc12)C(N)=O [Compound No. 800, Ac-D-Tyr-Hyp-Alb-Thr-Phe-AzaGly-Leu-Arg(Me)-Trp-NH2] (Ac-[dY][Hyp][Dap(CONH2)]TF[azaGly]L[Arg(Me)]W-NH2)
1.5	CNC(=N)NCCC[C@H](NC(=O)[C@H](CC(C)C)NC(=O)NNC(=O)[C@H](Cc1ccccc1)NC(=O)[C@@H]1C[C@@H](O)CN1C(=O)[C@H](CC(N)=O)NC(=O)[C@@H]1C[C@@H](O)CN1C(=O)[C@@H](Cc1ccc(O)cc1)NC(C)=O)C(=O)N[C@@H](Cc1c[nH]c2ccccc12)C(N)=O [Compound No. 810, Ac-D-Tyr-Hyp-Asn-Hyp-Phe-AzaGly-Leu-Arg(Me)-Trp-NH2] (Ac-[dY][Hyp]N[Hyp]F[azaGly]L[Arg(Me)]W-NH2)
1.5	CNC(=N)NCCC[C@H](NC(=O)[C@H](CC(C)C)NC(=O)NNC(=O)[C@H](Cc1ccc(Cl)cc1)NC(=O)[C@@H](NC(=O)[C@H](CC(N)=O)NC(=O)[C@@H]1C[C@@H](O)CN1C(=O)[C@@H](Cc1ccc(O)cc1)NC(C)=O)[C@@H](C)O)C(=O)N[C@@H](Cc1c[nH]c2ccccc12)C(N)=O [Compound No. 767, Ac-D-Tyr-Hyp-Asn-Thr-Phe(4Cl)-AzaGly-Leu-Arg(Me)-Trp-NH2] (Ac-[dY][Hyp]NT[Phe(4-Cl)][azaGly]L[Arg(Me)]W-NH2)
3.4	CNC(=N)NCCC[C@H](NC(=O)[C@H](CC(C)C)NC(=O)NNC(=O)[C@H](Cc1ccc(F)cc1)NC(=O)[C@@H](NC(=O)[C@H](CC(N)=O)NC(=O)[C@H](CCCCN)NC(=O)[C@@H](Cc1ccc(O)cc1)NC(C)=O)[C@@H](C)O)C(=O)N[C@@H](Cc1c[nH]c2ccccc12)C(N)=O [Compound No. 789, Ac-D-Tyr-Lys-Asn-Thr-Phe(4F)-AzaGly-Leu-Arg(Me)-Trp-NH2] (Ac-[dY]KNT[Phe(4-F)][azaGly]L[Arg(Me)]W-NH2)
1.1	CNC(=N)NCCC[C@H](NC(=O)[C@H](CC(C)C)NC(=O)NNC(=O)[C@H](Cc1ccccc1)NC(=O)[C@@H](NC(=O)[C@H](CC(N)=O)NC(=O)[C@@H]1CCCCN1C(=O)[C@@H](Cc1ccc(O)cc1)NC(C)=O)[C@@H](C)O)C(=O)N[C@@H](Cc1c[nH]c2ccccc12)C(N)=O [Compound No. 721, Ac-D-Tyr-Pic(2)-Asn-Thr-Phe-AzaGly-Leu-Arg(Me)-Trp-NH2] (Ac-[dY][Pip]NTF[azaGly]L[Arg(Me)]W-NH2)
2.1	CNC(=N)NCCC[C@H](NC(=O)[C@H](CC(C)C)NC(=O)NNC(=O)[C@H](Cc1ccccc1)NC(=O)[C@@H](NC(=O)[C@H](CC(N)=O)NC(=O)[C@@H]1C[C@H](N)CN1C(=O)[C@@H](Cc1ccc(O)cc1)NC(C)=O)[C@@H](C)O)C(=O)N[C@@H](Cc1c[nH]c2ccccc12)C(N)=O [Compound No. 780, Ac-D-Tyr-Pro(4NH2)-Asn-Thr-Phe-AzaGly-Leu-Arg(Me)-Trp-NH2] (Ac-[dY][Pro(4S-NH2)]NTF[azaGly]L[Arg(Me)]W-NH2)
3.1	CNC(=N)NCCC[C@H](NC(=O)[C@H](CC(C)C)NC(=O)NNC(=O)[C@H](Cc1ccccc1F)NC(=O)[C@@H](NC(=O)[C@H](CC(N)=O)NC(=O)[C@H](CCCCN)NC(=O)[C@@H](Cc1ccc(O)cc1)NC(C)=O)[C@@H](C)O)C(=O)N[C@@H](Cc1c[nH]c2ccccc12)C(N)=O [Compound No. 754, Ac-D-Tyr-Lys-Asn-Thr-Phe(2F)-AzaGly-Leu-Arg(Me)-Trp-NH2] (Ac-[dY]KNT[Phe(2-F)][azaGly]L[Arg(Me)]W-NH2)
2.6	CNC(=N)NCCC[C@H](NC(=O)[C@H](CC(C)C)NC(=O)NNC(=O)[C@H](Cc1ccc(Cl)cc1)NC(=O)[C@@H](NC(=O)[C@H](CC(N)=O)NC(=O)C(C)(C)NC(=O)[C@@H](Cc1ccc(O)cc1)NC(C)=O)[C@@H](C)O)C(=O)N[C@@H](Cc1c[nH]c2ccccc12)C(N)=O [Compound No. 770, Ac-D-Tyr-Aib-Asn-Thr-Phe(4Cl)-AzaGly-Leu-Arg(Me)-Trp-NH2] (Ac-[dY][Aib]NT[Phe(4-Cl)][azaGly]L[Arg(Me)]W-NH2)
0.6	CNC(=N)NCCC[C@H](NC(=O)[C@H](CC(C)C)NC(=O)NNC(=O)[C@H](Cc1ccccc1C)NC(=O)[C@@H](NC(=O)[C@H](CC(N)=O)NC(=O)[C@@H]1C[C@@H](O)CN1C(=O)[C@@H](Cc1ccc(O)cc1)NC(C)=O)[C@@H](C)O)C(=O)N[C@@H](Cc1c[nH]c2ccccc12)C(N)=O [Compound No. 870, Ac-D-Tyr-Hyp-Asn-Thr-Phe(2Me)-AzaGly-Leu-Arg(Me)-Trp-NH2] (Ac-[dY][Hyp]NT[Phe(2-Me)][azaGly]L[Arg(Me)]W-NH2)
